Results: patent US20030139372A1, “Modulation of bone formation” (priority 2000, published 2003)
“Also recorded” adds a separate entry of the source.

What was measured:
[1] = tested on: whole bone marrow cells (BMC); experiment: Fibroblastic colony forming unit (CFU-f) cultures of whole bone marrow cells; type: cell-based, rat; conditions: for colony numbers: CFU-f colonies
Experimental: Whole bone marrow cells (BMC's) were obtained from the tibias and femurs of 125 g male Wistar rats. The bones were removed under aseptic conditions and all soft adherent tissue removed. An end of each bone was removed, a hole made in the opposing end with an 18 gauge syringe needle, and the cells isolated centrifugally [Dobson K. R., et al., Calcif tissue Int., 65:411-413 (1999)]. The cells were dispersed in 10 ml DMEM (containing 12% FCS, 1×10^−8 M dexamethasone and […] ascorbic acid) by repeated pipetting, and a single-cell suspension achieved by forcefully expelling the cells through a 20 gauge syringe needle. The cells were then used in the protocols described below. To analyse the numbers of fibroblastic-colony forming units (CFU-f) in either whole BMC or high density non-adherent stromal precursor (NASP) cell cultures, 10^6 nucleated BMC, or the non-adherent cells from the high density NASP cellcultures, were plated out on 55 cm^2 petri dishes in DMEM containing; 12% FCS, 1×10^−8 M dexamethasone and 50 μg/ml ascorbic acid. In the case of the CFU-f analysis of whole BMC, the test agents were added once at the beginning of the culture period. In the case of NASP cell cultures, the test agents were added at the beginning of the NASP cell cultures themselves and the CFU-f assay only used to assess the number of CFU-f generated during the NASP cell culture. The medium was changed after 5 days and, thereafter, twice weekly. The cultures were maintained for 18 days, after which the cells were washed with PBS and fixed, by the addition of cold ethanol. After fixation, the cultures were stained for alkaline phosphatase (APase) positive, calcium positive, collagen positive and total colonies as described by Scutt & Bertram (J. Bone and Mineral Res. 10:474-489, 1995). The cultures were then photographed using a digital camera and the APase positive, calcium positive, collagen positive and total colonies quantitated using Bioimage “Intelligent Quantifier” image analysis software [Dobson K., et al., A cost effective method for the automatic quantitative analysis of fibroblastic-colony forming units with osteoblastic potential. Calcif. Tissue Int. 65:166-172 (1999)].

bone forming cells = experiment: Bone anabolic activity from CFU-f and NASP cell assays combined with neonatal rat calvarial organ cultures; type: cell-based; conditions: for bone anabolic activity: useful activity taken as equivalent to that of PGE2
Text: The main reason for the lack of understanding of the cellular basis for the actions of bone anabolic drugs is that there exists, at present, no single in vitro assay which responds to these drugs in an appropriate manner. However, we have now developed a number of assays which, when used in combination with neonatal rat calvarial organ cultures, are able to predict bone anabolic agents.
In the accompanying Figures, which are purely illustrative and not limiting on the present invention, the effect of certain compounds is shown on alkaline phosphatase activity, calcium uptake and collagen synthesis, respectively, with the final bar showing the cumulative and determinative effect of the compound on bone anabolism:
As noted above, there is no single assay that can reliably report on bone anabolic activity. Individual assays can identify certain putative bone anabolic agents but as there are many bone anabolic agents which act by a number of mechanisms, many remain unidentified. By using the CFU-f and the NASP cell assays in combination with neonatal rat calvarial organ cultures, bone anabolic agents can be reliably identified as the false negatives are reduced to a minimum.

neonatal rat calvariae = experiment: Collagen synthesis in organ culture of neonatal rat calvariae; type: cell-based; conditions: [3H]proline incorporation into collagenase-digestible protein; FIG. 1
Experimental: One day old rat pups were killed and the calvariae (skull cases) dissected out. The calvariae were then cut along the sagittal suture to give two hemicalvariae per foetus. Each bone was cultured in 2 ml DMEM containing 1 mg/ml BSA, 50 μg/ml ascorbic acid, 60 μg/ml penicillin, and 50 μg/ml streptomycin and 1×10^−8M dexamethasone in 35 mm tissue culture wells. After 24 h, the medium was replaced with fresh medium, any test agent added, and the tissue cultured for a further 48 h.
In this assay, each bone was pulsed with 10 μCi of [^3H]proline for 24 h at the end of the culture period. The bones were washed successively in trichloroacetic acid (TCA), acetone, and ether, and then dried. The incorporation of [^3H]proline into collagenase-digestible protein (CDP) was determined using purified bacterial collagenase by the method of Peterkofsky B. and Diegelmann R. (Biochemistry, 6: 988-994, 1971) and expressed as dpm.

[2] = tested on: non-adherent stromal precursor (NASP) cells; experiment: High-density non-adherent stromal precursor (NASP) cell cultures; type: cell-based, rat; conditions: 4 day NASP culture then CFU-f readout; FIG. 1
Experimental: Whole bone marrow cells (BMC's) were obtained from the tibias and femurs of 125 g male Wistar rats. The bones were removed under aseptic conditions and all soft adherent tissue removed. An end of each bone was removed, a hole made in the opposing end with an 18 gauge syringe needle, and the cells isolated centrifugally [Dobson K. R., et al., Calcif tissue Int., 65:411-413 (1999)]. The cells were dispersed in 10 ml DMEM (containing 12% FCS, 1×10^−8 M dexamethasone and […] ascorbic acid) by repeated pipetting, and a single-cell suspension achieved by forcefully expelling the cells through a 20 gauge syringe needle. The cells were then used in the protocols described below. […]
After fixation, the cultures were stained for alkaline phosphatase (APase) positive, calcium positive, collagen positive and total colonies as described by Scutt & Bertram (J. Bone and Mineral Res. 10:474-489, 1995). The cultures were then photographed using a digital camera and the APase positive, calcium positive, collagen positive and total colonies quantitated using Bioimage “Intelligent Quantifier” image analysis software [Dobson K., et al., A cost effective method for the automatic quantitative analysis of fibroblastic-colony forming units with osteoblastic potential. […]

| SMILES | colony numbers [1] | bone anabolic activity (bone forming cells) | also measured |
| --- | --- | --- | --- |
| CC#CCC(C)[C@H](O)/C=C/[C@@H]1[C@H]2C/C(=C/CCCC(=O)O)C[C@H]2C[C@H]1O (some centres unmarked) [iloprost] | stimulation comparable with that of PGA1 |  |  |
| CCCCC/C=C\C/C=C\CCCCCCCC(=O)O [Linoleic acid, linoleic acid] |  | showed bone anabolic activity |  |
| CCCCC[C@H](O)/C=C/[C@H]1C=CC(=O)[C@@H]1C/C=C\CCCC(=O)O [PGA2] |  | useful activity |  |
| CCCCCCCCCCCCCCCC(=O)OC [Methyl palmitate, methyl palmitate] | produced stimulation |  |  |
| c1cc2c(cc1[C@H]1OC[C@H]3[C@@H]1CO[C@@H]3c1ccc3c(c1)OCO3)OCO2 [sesamin] |  | useful activity |  |
| CCCCCCCC/C=C\CCCCCCCC(=O)O [oleic acid] |  | useful activity |  |
| CCCCC[C@H](O)/C=C/[C@H]1C=CC(=O)[C@@H]1CCCCCCC(=O)O [PGA1] | significant dose dependent increase |  | bone anabolic activity compared with PGE2 (bone forming cells; magnitude relative to PGE2): comparable with that produced by PGE2; also recorded: at least as good as that of PGE2; response in calvarial collagen synthesis assay (neonatal rat calvariae): positive response; response in CFU-f assay ([1]; whole BMC, 18 day culture, FIG. 1): positive response; response in NASP cell assay [2]: positive response |
